Results on 20 compounds are retold here after patent publication EP4782453A1 (Beyang Therapeutics Co., Ltd., priority 2023, dated 2025).

Broadly, the pIC50 is the IC50 on a negative log10 scale, so that one unit is a factor of ten.

For one experiment, the target named is T1, Menin-MLL (Homo sapiens, UniProt O00255).
T1 construct: His-Menin (M1-L615 end); purchased BIORTUS BP9210
T1 sequence (O00255 1-615 isoform O00255-1): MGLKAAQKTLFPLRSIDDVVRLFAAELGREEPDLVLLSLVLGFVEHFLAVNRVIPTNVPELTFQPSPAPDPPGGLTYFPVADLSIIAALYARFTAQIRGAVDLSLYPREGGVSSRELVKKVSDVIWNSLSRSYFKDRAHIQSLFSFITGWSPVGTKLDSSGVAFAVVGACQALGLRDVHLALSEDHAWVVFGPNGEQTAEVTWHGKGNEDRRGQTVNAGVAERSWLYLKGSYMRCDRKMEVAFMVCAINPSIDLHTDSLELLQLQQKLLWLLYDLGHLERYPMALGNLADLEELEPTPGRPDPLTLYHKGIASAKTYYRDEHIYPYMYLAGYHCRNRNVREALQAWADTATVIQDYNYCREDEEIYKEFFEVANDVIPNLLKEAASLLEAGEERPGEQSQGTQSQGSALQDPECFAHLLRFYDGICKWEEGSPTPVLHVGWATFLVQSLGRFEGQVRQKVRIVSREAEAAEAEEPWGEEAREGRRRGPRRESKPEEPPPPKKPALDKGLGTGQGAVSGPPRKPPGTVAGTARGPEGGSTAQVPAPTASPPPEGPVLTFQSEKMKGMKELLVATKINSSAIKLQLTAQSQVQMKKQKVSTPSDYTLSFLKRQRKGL
Briefly: Inhibitory activity against Menin-MLL binding (fluorescence polarization). The following applies: 150 nM His-Menin, 15 nM FITC-MLL, 25°C for 60 min. The gist of the method: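 Fluorescence polarization competition: compound and 150 nM His-tagged menin (residues M1-L615) sit 15 min at 25 °C in pH 7.5 HEPES buffer with NaCl, DTT and BSA; 15 nM FITC-labelled MLL peptide then binds for 60 min. IC50 fitted sigmoidally from mP values, duplicate wells.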
(In general: Fluorescence polarisation rises when a labelled molecule tumbles more slowly, as on binding a larger partner.)

The test system of experiment [1] is MOLM-13 (carrying MLL-AF9). The experiment can be described thus: Inhibition of proliferation of human tumor cells (Alamar Blue, 7 days), MOLM-13. In kind it is cell-based. Conditions: Homo sapiens, MOLM-13 cells (carrying MLL-AF9), method calls the value GI50. The gist of the method: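 GI50 values reflect growth inhibition over 7 days, read by Alamar Blue. Seeding density was 4,000 cells/well except KG-1a (3,000 cells/well); each line grew in its own FBS-containing medium at 37°C.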

The subject of experiment [2] is MV-4-11 (carrying MLL-AF4). Briefly: Inhibition of proliferation of human tumor cells (Alamar Blue, 7 days), MV-4-11. In kind it is cell-based. The following applies: Homo sapiens, MV4-11, 168 h, MV-4-11 cells (carrying MLL-AF4), method calls the value GI50. An excerpt: Experimental Example 2: Evaluation of Inhibitory Activity of Compounds Against Proliferation of Human Tumor Cells
• Human acute lymphoblastic leukemia cells MV-4-11, purchased from American Type Culture Collection, Catalog Number: CRL-9591; • Human acute myeloid leukemia cells MOLM-13, purchased from COBIOER BIOSCIENCES CO., LTD, Catalog Number: CBP60678; • Human acute myeloid leukemia cells KG-1a, purchased from American Type Culture Collection, Catalog Number: CCL-246.1; • Inverted Microscope, purchased from Olympus Tokyo; • Countess™ Automated Cell Counter, purchased from Invitrogen, Model: C10281; and • Multilabel Reader, purchased from Bio-Tek, Model: Synergy HT.
MV-4-11 cells were cultured in an IMDM medium containing 10% fetal bovine serum, KG-a cells were cultured in an IMDM medium containing 20% fetal bovine serum, or MOLM-13 cells were cultured in an RPMI-1640 medium containing 20% fetal bovine serum, each supplemented with 100 U·mL^-1 penicillin and 100 µg·mL^-1 streptomycin. These cells were cultured at 37°C with 5% CO2. The suspensions of individual cell lines were prepared in their respective media and seeded into 96-well plates at a density of 4,000 cells/well for MV-4-11 and MOLM-13 cells, or 3,000 cells/well for KG-1a cells. On the day of the experiment, a compound stock solution was diluted in a 3-fold or 4-fold gradient using DMSO. Each gradient-diluted stock solution was then further diluted 250-fold with a complete medium to prepare a series of working solutions at different concentrations. Subsequently, 100 µL of working solution (containing a 2-fold concentration series of the test compound) was added to each well, with duplicate wells set up for each concentration.
Seven days after compound addition (on Day 7), an Alamar Blue assay reagent (MCE, HY-111391 / CS-0040317) was added to measure the fluorescence intensity in each well. Wells containing the cells in the growth medium supplemented with 0.1% DMSO (Day 7) served as high-read control wells. The readouts from the wells containing the cells in the growth medium supplemented with 0.1% DMSO on the day of compound addition (Day 0) served as low-reading control well. GraphPad Prism software was used to calculate the concentration required to inhibit 50% of cell proliferation (GI50), which serves as a cell proliferation inhibition activity index.
For orientation: The colour change of resazurin is a common sign of viable cells or microbes.

Where [3] appears, read: fluorescence polarization, read-out: Menin-MLL IC50.

pIC50: −log10 of the molar value. Read-outs that look alike come from different tables or passages of the source.

For the compound `Cc1nc(F)c2c(-c3ccc(F)cc3C(=O)N3[C@H](C)COC[C@H]3C)cc(C3CN([C@H](C)C4CCOCC4)C3)cn12` [Example 209-1, (3R,5R)-4-[5-fluoro-2-(1-fluoro-3-methyl-6-{1-[(1R)-1-(oxacyclohexan-4-yl)ethyl]azacyclobutan-3-yl}imidazo[1,5-a]pyridin-8-yl)benzoyl]-3,5-dimethylmorpholine], the pIC50 is 7.53 on Menin-MLL (setting [3]), 7.68 in experiment [1] (168 h) and 7.92 in experiment [2].

As for `Cc1nc(F)c2c(-c3ccc(F)cc3C(=O)N3[C@H](C)COC[C@H]3C)cc(C3CN([C@@H](C)C4CCOCC4)C3)cn12` [Example 209-2, (3R,5R)-4-[5-fluoro-2-(1-fluoro-3-methyl-6-{1-[(1S)-1-(oxacyclohexan-4-yl)ethyl]azacyclobutan-3-yl}imidazo[1,5-a]pyridin-8-yl)benzoyl]-3,5-dimethylmorpholine], the pIC50 on Menin-MLL (setting [3]) is 8.35; in experiment [1] (168 h), 8.30; in experiment [2] it was 8.70.

For `CC(=O)N1CCC(CN2CC(Cc3cc(-c4ccc(F)cc4C(=O)N(CC(F)F)C(C)C)c4cncc(C)n34)C2)CC1` [Example 210], the pIC50 on Menin-MLL (setting [3]) was 8.52; in experiment [1] (168 h), 7.39; in experiment [2], 8.15.

For `Cc1nc(F)c2c(-c3ccc(F)cc3C(=O)N3[C@H](C)COC[C@H]3C)cc(C3CN(CC4CCN(CC5(O)CCOCC5)CC4)C3)cn12` [Example 211, 4-[(4-{[3-(8-{2-[(3R,5R)-3,5-dimethylmorpholin-4-carbonyl]-4-fluorophenyl}-1-fluoro-3-methylimidazo[1,5-a]pyridin-6-yl)azacyclobutan-1-yl]methyl}piperidin-1-yl)methyl]oxacyclohexan-4-ol], the pIC50 at Menin-MLL (setting [3]) is 8.52; in experiment [1] (168 h) it was 8.24; in experiment [2], 8.66.

In the case of `Cc1ncc2c(-c3ccc(F)cc3C(=O)N3[C@H](C)COC[C@H]3C)cc(C3CN(CC4CCOCC4)C3)cn12` [Example 212, (3R,5R)-4-[5-fluoro-2-(3-methyl-6-{1-[(oxacyclohexan-4-yl)methyl]azacyclobutan-3-yl}imidazo[1,5-a]pyridin-8-yl)benzoyl]-3,5-dimethylmorpholine], the pIC50 on Menin-MLL (setting [3]) is 7.90; in experiment [1] (168 h) it was 7.51; in experiment [2], 7.80.

Consider `Cc1nc(F)c2c(-c3ccc(F)cc3C(=O)N3[C@H](C)COC[C@H]3C)cc(C3CN(C[C@H]4CC[C@H](n5cncn5)CC4)C3)cn12` [Example 213, (3R,5R)-4-{5-fluoro-2-[1-fluoro-3-methyl-6-(1-{[(1r,4r)-4-(1H-1,2,4-triazol-1-yl)cyclohexyl]methyl}azacyclobutan-3-yl)imidazo[1,5-a]pyridin-8yl]benzoyl}-3,5-dimethylmorpholine], for which the pIC50 at Menin-MLL (Menin-MLL IC50, fluorescence polarization) is 7.96; in experiment [1] (MOLM-13, 168 h), 7.54; in experiment [2] it was 7.89.

For the compound `Cc1nc(F)c2c(-c3ccc(F)cc3C(=O)N3[C@H](C)COC[C@H]3C)cc(C3CN(CC4CCN(C(=O)C5(O)CC5)CC4)C3)cn12` [Example 214], the pIC50 at Menin-MLL (setting [3]) was 8.30; in experiment [1] (168 h), 7.92; in experiment [2] it was 8.12.

In the case of `Cc1nc(F)c2c(-c3ccc(F)cc3C(=O)N3[C@H](C)COC[C@H]3C)cc(C3CN(CC4CCN(C(=O)C5CC5)CC4)C3)cn12` [Example 215], the negative-log IC50 (pIC50) on Menin-MLL (setting [3]) is 7.96; in experiment [1] (168 h), 7.89; in experiment [2] it was 8.17.

Turning to `Cc1nc(F)c2c(-c3ccc(F)cc3C(=O)N3[C@H](C)COC[C@H]3C)cc(C3CN(CC4CCN(C(=O)C5COC5)CC4)C3)cn12` [Example 216], the negative logarithm of the IC50 (pIC50) at Menin-MLL (setting [3]) was 7.64; in experiment [1] (168 h), 7.49; in experiment [2], 7.66.

As for `Cc1nc(F)c2c(-c3ccc(F)cc3C(=O)N3[C@H](C)COC[C@H]3C)cc(C3CN(CC4CCN(C(=O)CC(C)C)CC4)C3)cn12` [Example 218], the pIC50 is 7.89 on Menin-MLL (setting [3]), 7.96 in experiment [1] (168 h) and 8.22 in experiment [2].

As to `Cc1nc(F)c2c(-c3ccc(F)cc3C(=O)N3[C@H](C)COC[C@H]3C)cc(C3CN(CC4CCN(C(=O)C(F)F)CC4)C3)cn12` [Example 219], the pIC50 at Menin-MLL (setting [3]) is 7.92; in experiment [1] (168 h), 7.85; in experiment [2] it was 7.92.

Take `Cc1nc(F)c2c(-c3ccc(F)cc3C(=O)N3[C@H](C)COC[C@H]3C)cc(C3CN(CC4CCN(C(=O)C5CCOCC5)CC4)C3)cn12` [Example 221]: the negative logarithm of the IC50 (pIC50) was 7.57 on Menin-MLL (setting [3]), 7.57 in experiment [1] (168 h) and 7.92 in experiment [2].

Consider `CNC(=O)N1CCC(CN2CC(c3cc(-c4ccc(F)cc4C(=O)N4[C@H](C)COC[C@H]4C)c4c(F)nc(C)n4c3)C2)CC1` [Example 222], for which the pIC50 on Menin-MLL (setting [3]) was 8.15; in experiment [1] (168 h), 8.05; in experiment [2] it was 8.36.

Consider `COCCC(=O)N1CCC(CN2CC(c3cc(-c4ccc(F)cc4C(=O)N4[C@H](C)COC[C@H]4C)c4c(F)nc(C)n4c3)C2)CC1` [Example 223], for which the pIC50 at Menin-MLL (setting [3]) is 7.82; in experiment [1] (168 h), 7.72; in experiment [2] it was 8.09.

Regarding `COCC(=O)N1CCC(CN2CC(c3cc(-c4ccc(F)cc4C(=O)N4[C@H](C)COC[C@H]4C)c4c(F)nc(C)n4c3)C2)CC1` [Example 224], the negative-log IC50 (pIC50) at Menin-MLL (setting [3]) is 7.59; in experiment [1] (168 h) it was 7.44; in experiment [2], 7.85.

`CC(=O)N1CCC(CN2CC(c3cc(-c4ccc(F)cc4C(=O)N4CCOC[C@H]4C)c4c(F)nc(C)n4c3)C2)CC1` [Example 225]: the pIC50 was 7.55 on Menin-MLL (setting [3]), 7.22 in experiment [1] (168 h) and 7.60 in experiment [2].

`Cc1nc(F)c2c(-c3ccc(F)cc3C(=O)N3[C@H](C)COC[C@H]3C)cc(C3CN(CC4CCN(C(=O)CC#N)CC4)C3)cn12` [Example 226]: the pIC50 on Menin-MLL (setting [3]) was 8.12; in experiment [1] (168 h) it was 8.28; in experiment [2], 8.68.

With `Cc1cncc2c(-c3ccc(F)cc3C(=O)N3[C@H](C)COC[C@H]3C)cc(CC3CN(CC4CCOCC4)C3)n12` [Example 230], the pIC50 is 8.70 on Menin-MLL (setting [3]); 8.54 in experiment [1] (MOLM-13, 168 h); 9.00 in experiment [2].

In the case of `CCC(=O)N1CCC(CN2CC(c3cc(-c4ccc(F)cc4C(=O)N4[C@H](C)COC[C@H]4C)c4c(F)nc(C)n4c3)C2)CC1` [Example 231], the pIC50 on Menin-MLL (setting [3]) is 7.65; in experiment [1] (168 h) it was 7.80; in experiment [2] it was 8.21.

Turning to `Cc1nc(F)c2c(-c3ccc(F)cc3C(=O)N3CCOC[C@H]3C)cc(C3CN(CC4CCOCC4)C3)cn12` [Example 232, (3R)-4-[5-fluoro-2-(1-fluoro-3-methyl-6-{1-[(oxacyclohexan-4-yl)methyl]azacyclobutan-3-yl}imidazo[1,5-a]pyridin-8-yl)benzoyl]-3-methylmorpholine], the values for the pIC50 (at Menin-MLL (setting [3]); in experiment [1] (168 h); in experiment [2]) were 7.76, 7.47 and 7.77, respectively.
